“And” between values parts separate entries of the source, which are not always exact repeats. Identical values can stand only once. Like-named read-outs stand apart in the source and are kept apart here. Marks after values point to notes of the source that are not given here.
What was measured:
[1] = Adverse event assessment in elderly volunteers; format: in vivo, human; details: for Treatment-related AEs: Total AE(s): N = 53
Description: Adverse event assessment and blood collection for hematologic and biochemical safety assessments were performed during study visits. Adverse event information was also collected in diaries that subjects filled out at home during the 6 weeks they were on study drug. Data on all adverse events were collected from the time of informed consent until 30 days after the last study visit. Events were classified by the investigators as mild, moderate or severe.
The 4 SAEs were retinal hemorrhage of the left eye with subsequent blindness in a subject with normal platelet counts who had completed a 6 week course of 5 mg weekly RAD001 6 weeks previously; severe back pain in a subject treated with placebo and severe gastroenteritis in a subject treated with placebo. The most common RAD001-related AE was mouth ulcer that, in the majority of cases, was of mild severity.

[2] = system: H1N1 A/California/07/2009; test: Hemagglutination inhibition (HI) titers after seasonal influenza vaccination in elderly volunteers pretreated with RAD001 or placebo; format: in vivo, human
Description: (§1) From December 2011 to April 2012, 218 elderly volunteers were enrolled in a randomized, observer-blind, placebo-controlled trial. The subjects were randomized to treatment arms using a validated automated randomization system with a ratio of RAD001 to placebo of 5:2 in each treatment arm. The treatment arms were:
(§2) The trial was observer-blind because the placebo in the RAD001 0.5 mg daily and 20 mg weekly cohorts differed slightly from the RAD001 tablets in those cohorts. […] The treatment duration for all cohorts was 6 weeks during which time subjects underwent safety evaluations in the clinic every 2 weeks. After subjects had been dosed for 4 weeks, RAD001 steady state levels were measured pre-dose and at one hour post dose. After completing the 6 week course of study drug, subjects were given a 2 week drug free break to reverse any possible RAD001-induced immunosuppression, and then were given a 2012 seasonal influenza vaccination (Agrippal®, Novartis Vaccines and Diagnostics, Siena, Italy) containing the strains H1N1 A/California/07/2009, H3N2 A/Victoria/210/2009, B/Brisbane/60/2008. Four weeks after influenza vaccination, subjects had serum collected for influenza titer measurements. Antibody titers to the 3 influenza vaccine strains as well as to 2 heterologous strains (A/H1N1 strain A/New Jersy/8/76 and A/H3N2 strain A/Victoria/361/11) were measured by standard hemagglutination inhibition assay (Kendal, A P et al. (1982) Concepts and procedures for laboratory-based influenza surveillance. Atlanta: Centers for Disease Control and Prevention B17-B35). Levels of IgG and IgM specific for the A/H1N1/California/07/2009 were measured in serum samples taken before and 4 weeks after influenza vaccination as described previously (Spensieri, F. et al. (2013) Proc. Natl. Acad. Sci. USA 110:14330-14335). Results were expressed as fluorescence intensity.
(§3) The primary analysis of geometric mean titer ratios was done using a normal Bayesian regression model with non-informative priors. This model was fitted to each antibody titer on the log scale. The primary outcome in each model was the Day 84 measurement. The Day 63 measurement was included in the outcome vector. The model fitted using SAS 9.2 proc mixed with the prior statement. The covariance structure of the matrix was considered as unstructured (option type=UN). A flat prior was used. For the secondary analysis of seroconversion rates, logistic regression was used.
(§4) The ability of RAD001 to improve immune function in elderly volunteers was evaluated by measuring the serologic response to the 2012 seasonal influenza vaccine. The hemagglutination inhibition (HI) geometric mean titers (GMT) to each of the 3 influenza vaccine strains at baseline and 4 weeks after influenza vaccination are provided in Table 4. The primary analysis variable was the HI GMT ratio (4 weeks post vaccination/baseline). […] This endpoint was chosen because a 1.2-fold increase in the influenza GMT ratio induced by the MF-59 vaccine adjuvant was associated with a decrease in influenza illness (Iob, A et al. (2005) Epidemiol Infect 133:687-693).
(§5) Rates of seroconversion 4 weeks after influenza vaccination were also evaluated. Seroconversion was defined as the change from a negative pre-vaccination titer (i.e., HI titer <1:10) to post-vaccination HI titer≥1:40 or at least 4-fold increase from a non-negative (≥1:10) pre-vaccination HI titer.

B/Brisbane/60/2008 = test: as above; format: in vivo, human
Description: as §1, §2, §3, §4, §5

H3N2 A/Victoria/210/2009 = test: as above; format: in vivo, human
Description: as §1, §2, §3, §4, §5

[3] = system: A/H1N1 strain A/New Jersey/8/76; format: in vivo, human; details: for Percentage of subjects who seroconvert to heterologous strain 4 weeks after seasonal influenza vaccination: A/H1N1 strain: A/NewJersey/8/76
[4] = system: 3 influenza vaccine strains (H1N1, H3N2 and B); test: Primary endpoint: HI GMT increase relative to placebo in at least 2 out of 3 influenza vaccine strains; format: in vivo, human; details: for primary endpoint (>=1.2-fold GMT increase relative to placebo in at least 2 out of 3 vaccine strains): ITT population
Description: as §4
Elderly volunteers >=65 years of age were randomized to one of the 3 RAD001 treatment groups (50 subjects per arm) or placebo (20 subjects per arm). Subjects were treated with study drug for 6 weeks, given a 2 week break, and then received influenza (Aggrippal, Novartis) and pneumoccal (Pneumovax 23, Merck), vaccinations. Response to influenza vaccination was assessed by measuring the geometric mean titers (GMTs) by hemagglutination inhibition assay to the 3 influenza strains (H1N1, H3N2 and B influenza subtypes) in the influenza vaccine 4 weeks after vaccination. The primary endpoints of the study were (1) safety and tolerability and (2) a 1.2 fold increase in influenza titers as compared to placebo in ⅔ of the influenza vaccine strains 4 weeks after vaccination. This endpoint was chosen because a 1.2 fold increase in influenza titers is associated with a decrease in influenza illness post vaccination, and therefore is clinically relevant. […] The pneumococcal vaccine contains antigens from 23 pneumococcal serotypes. Antibody titers to 7 of the serotypes were measured in our subjects.

[5] = system: A/H1N1/California/07/2009; test: Anti-influenza IgG and IgM levels in serum before and 4 weeks after vaccination; format: in vivo, human; details: all p values >0.05 by Kruskal-Wallis rank sum test
Description: as §2, with “After completing the 6 week course of study drug, subjects were given a 2 week drug free break to reverse any possible RAD001-induced immunosuppression, and then were given a 2012 seasonal influenza vaccination (Agrippal®, Novartis Vaccines and Diagnostics, Siena, Italy) containing the strains H1N1 A/California/07/2009, H3N2 A/Victoria/210/2009, B/Brisbane/60/2008. Four weeks after influenza vaccination, subjects had serum collected for influenza titer measurements.” left out

[6] = system: A/H3N2 strain A/Victoria/361/11; test: HI titers / seroconversion to heterologous influenza strain not contained in the vaccine; format: in vivo, human; details: for Percentage of subjects who seroconvert to heterologous strain 4 weeks after seasonal influenza vaccination: A/H3N2 strain: A/Victoria/361/11
[7] = system: PD-1 positive and PD-1 negative CD4 and CD8 T cells; parameters: species or system human; details: in vivo
[8] = in vivo
clinical = details: human, in vivo
influenza = details: cited from earlier work
[9] = cited from earlier work
[10] = Intention to Treat Population, 0.5 mg
[11] = Intention to Treat Population, 5 mg
[12] = Intention to Treat Population, 20 mg
[13] = Subjects with Baseline Titers <=40, 0.5 mg
[14] = Subjects with Baseline Titers <=40, 5 mg
[15] = Subjects with Baseline Titers <=40, 20 mg

CO[C@H]1C[C@@H]2CC[C@@H](C)[C@@](O)(O2)C(=O)C(=O)N2CCCC[C@H]2C(=O)O[C@H]([C@H](C)C[C@@H]2CC[C@@H](OCCO)[C@H](OC)C2)CC(=O)[C@H](C)/C=C(\C)[C@@H](O)[C@@H](OC)C(=O)[C@H](C)C[C@H](C)/C=C/C=C/C=C/1C [RAD001, (1R,9S,12S,15R,16E,18R,19R,21R,23 S,24E,26E,28E,30S,32S,35R)-1,18-dihydroxy-12-{(1R)-2-[(1 S,3R,4R)-4-(2-hydroxyethoxy)-3-methoxycyclohexyl]-1-methylethyl}-19,30-dimethoxy-15,17,21,23,29,35-hexamethyl-11,36-dioxa-4-aza-tricyclo[30.3.1.04,9]hexatriaconta-16,24,26,28-tetraene-2,3,10,14,20-pentaone]
Treatment-related AEs: Total AE(s) ([1]; RAD001 0.5 mg daily): 35 n (%) | Treatment-related AEs: Total AE(s) ([1]; RAD001 5 mg weekly): 46 n (%) | Treatment-related AEs: Total AE(s) ([1]; RAD001 20 mg weekly): 109 n (%) | deaths during the study ([1]; elderly volunteers, 6 week treatment): No deaths occurred | severe AEs assessed as related to RAD001 ([1]; mouth ulcers in a subject treated with 20 mg weekly): Only one severe AE | Percent of subjects with seroconversion to influenza 4 weeks after vaccination [2, 10]: 27% | Percent of subjects with seroconversion to influenza 4 weeks after vaccination [2, 11]: 27% | Percent of subjects with seroconversion to influenza 4 weeks after vaccination [2, 12]: 17% | Percent of subjects with seroconversion to influenza 4 weeks after vaccination [2, 13]: 42% | Percent of subjects with seroconversion to influenza 4 weeks after vaccination [2, 14]: 45% | Percent of subjects with seroconversion to influenza 4 weeks after vaccination [2, 15]: 36% | Percent of subjects with seroconversion to influenza 4 weeks after vaccination (B/Brisbane/60/2008; [10]): 27% | Percent of subjects with seroconversion to influenza 4 weeks after vaccination (B/Brisbane/60/2008; [11]): 22% | Percent of subjects with seroconversion to influenza 4 weeks after vaccination (B/Brisbane/60/2008; [12]): 19% | Percent of subjects with seroconversion to influenza 4 weeks after vaccination (B/Brisbane/60/2008; [13]): 40* Percent | Percent of subjects with seroconversion to influenza 4 weeks after vaccination (B/Brisbane/60/2008; [14]): 33% | Percent of subjects with seroconversion to influenza 4 weeks after vaccination (B/Brisbane/60/2008; [15]): 28% | Percent of subjects with seroconversion to influenza 4 weeks after vaccination (H3N2 A/Victoria/210/2009; [10]): 27% | Percent of subjects with seroconversion to influenza 4 weeks after vaccination (H3N2 A/Victoria/210/2009; [11]): 24% | Percent of subjects with seroconversion to influenza 4 weeks after vaccination (H3N2 A/Victoria/210/2009; [12]): 25% | Percent of subjects with seroconversion to influenza 4 weeks after vaccination (H3N2 A/Victoria/210/2009; [13]): 64% | Percent of subjects with seroconversion to influenza 4 weeks after vaccination (H3N2 A/Victoria/210/2009; [14]): 53% | Percent of subjects with seroconversion to influenza 4 weeks after vaccination (H3N2 A/Victoria/210/2009; [15]): 71% | increase in HI GMT ratio for heterologous strain as compared to placebo ([3]; 4 weeks after vaccination): higher | Percentage of subjects who seroconvert to heterologous strain 4 weeks after seasonal influenza vaccination ([3]; RAD001 5 mg weekly): 16% | Percentage of subjects who seroconvert to heterologous strain 4 weeks after seasonal influenza vaccination ([3]; RAD001 20 mg weekly): 8% | primary endpoint (>=1.2-fold GMT increase relative to placebo in at least 2 out of 3 vaccine strains) ([4]; 0.5 mg daily or 5 mg weekly): met the GMT primary endpoint | primary endpoint (>=1.2-fold GMT increase relative to placebo in at least 2 out of 3 vaccine strains) ([4]; 20 mg weekly): but not higher dose (20 mg weekly) cohort met the primary endpoint | RAD001 concentration versus increase in titer to each influenza vaccine strain ([4]; RAD001 concentration 1 hour post dose after 4 weeks dosing): inverse exposure/response relationship | increase in influenza titers in subjects with low baseline titers versus ITT population ([4]; subset with baseline influenza titers <=1:40): greater RAD001-associated increase in titers | change from baseline to 4 weeks post vaccination in anti-H1N1 influenza IgG and IgM levels versus placebo [5]: No significant difference | increase in HI GMT ratio for heterologous strain as compared to placebo ([6]; 4 weeks after vaccination): higher | Percentage of subjects who seroconvert to heterologous strain 4 weeks after seasonal influenza vaccination ([6]; RAD001 0.5 mg daily): 38% | Percentage of subjects who seroconvert to heterologous strain 4 weeks after seasonal influenza vaccination ([6]; RAD001 5 mg weekly): 39%* | Percentage of subjects who seroconvert to heterologous strain 4 weeks after seasonal influenza vaccination ([6]; RAD001 20 mg weekly): 40%* | H3N2 heterologous strain seroconversion rate ([6]; pooled RAD001 cohorts, versus 20% for placebo (p=0.007)): 39% | decrease in PD-1-positive CD4 T cells as compared to the placebo cohort [7]: −37.1-−28.5% | decrease in PD-1-positive CD8 T cells as compared to the placebo cohort [7]: −43.3-−38.5% | decrease in PD-1 positive CD4 T cells compared to placebo cohort [7]: 30.2% and 32.7% | decrease in PD-1 positive CD8 T cells compared to placebo cohort [7]: 37.4% and 41.4% | increase in PD-1-negative CD4 T cells as compared to the placebo cohort [7]: 3.0-4.9% | percentage of CD4 PD-1 positive T cells versus baseline [7]: decreased from baseline | percentage of CD8 PD-1 positive cells versus baseline [7]: decreased from baseline | significant differences in the percentages of naïve lymphocytes versus placebo [7]: not detected | trough level of study dosing regimens relative to approved transplant and oncology regimens ([8]; human): 3-20 fold lower | average RAD001 trough level [8]: below detection limits | concentration at 4 weeks (clinical; 0.5 mg daily): 0.9 ng/mL | concentration at 4 weeks (clinical; 5 mg weekly): < 0.3 ng/mL | concentration at 4 weeks (clinical; 20 mg weekly): 0.7 ng/mL

CO[C@H]1C[C@@H]2CC[C@@H](C)[C@@](O)(O2)C(=O)C(=O)N2CCCC[C@H]2C(=O)O[C@H]([C@H](C)C[C@@H]2CC[C@@H](O)[C@H](OC)C2)CC(=O)[C@H](C)/C=C(\C)[C@@H](O)[C@@H](OC)C(=O)[C@H](C)C[C@H](C)/C=C/C=C/C=C/1C [rapamycin]
response to influenza vaccination (influenza; elderly mice, 6 weeks of treatment): improved response to influenza vaccination | serologic response to influenza as compared to placebo (influenza; mice vaccinated against influenza in the presence of rapamycin): broader serologic response to influenza | lifespan ([9]; mice): extend lifespan | spontaneous physical activity ([9]; old mice): increases spontaneous physical activity
